# Experimental data published in US12371454B2, “Cyclic peptide compound having Kras inhibitory action” (priority 2019, dated 2025).
# Starred links: 1 amine or outer side, 2 acyl side, 3 side chain; linkers in the order of their positions; H or OH if unused. Positions of bridges follow the written chain, without caps; N, C: chain ends. Non-standard residues stand in square brackets, D forms with d. Residues, ends and D or L forms follow the SMILES beside them. *: point of attachment. hPhe(3-Cl-4-CF3) = N[C@@H](CCc1ccc(C(F)(F)F)c(Cl)c1)C(=O)O; NMePhe(4-Me) = CN[C@@H](Cc1ccc(C)cc1)C(=O)O; NMePhe(4-F) = CN[C@@H](Cc1ccc(F)cc1)C(=O)O; NMedβ3hAla = C[C@H](CC(=O)[*:2])N(C)[*:1]; NMeNva(5,5-F2) = CN[C@@H](CCC(F)F)C(=O)O; NMeGly(cPent) = CN[C@H](C(=O)O)C1CCCC1; NMeCha = CN[C@@H](CC1CCCCC1)C(=O)O; NMeChg = CN[C@H](C(=O)O)C1CCCCC1; NMeF = CN[C@@H](Cc1ccccc1)C(=O)O; NMeI = CC[C@H](C)[C@H](NC)C(=O)O; NMeD = CN[C@@H](CC(=O)O)C(=O)O; dNMeD = CN[C@H](CC(=O)O)C(=O)O; NMeL = CN[C@@H](CC(C)C)C(=O)O; Cba = N[C@@H](CC1CCC1)C(=O)O; NMeV = CN[C@H](C(=O)O)C(C)C; d(β3hA) = C[C@@H](N)CC(=O)O; NMeS = CN[C@@H](CO)C(=O)O; Morpholide = C1CN(*)CCO1; NMeA = CN[C@@H](C)C(=O)O; Piperidide = C1CCN(*)CC1; Pyrrolidide = C1CCN(*)C1; dNMeA = CN[C@H](C)C(=O)O; Ac5c = NC1(C(=O)O)CCCC1; Aze = O=C(O)[C@@H]1CCN1; Abu = CC[C@H](N)C(=O)O; Sar = CNCC(=O)O; Propyl = CCC*
# Target: T1, Kras and SOS1 (biotin-tagged human Kras loaded with GDP, His-tagged human SOS1) (Homo sapiens, UniProt P01116, G12D)
# T1 construct: made in house; host or cells: E. coli (stated for Kras only)
# T1 sequence (P01116 1-188 isoform P01116-2 G12D): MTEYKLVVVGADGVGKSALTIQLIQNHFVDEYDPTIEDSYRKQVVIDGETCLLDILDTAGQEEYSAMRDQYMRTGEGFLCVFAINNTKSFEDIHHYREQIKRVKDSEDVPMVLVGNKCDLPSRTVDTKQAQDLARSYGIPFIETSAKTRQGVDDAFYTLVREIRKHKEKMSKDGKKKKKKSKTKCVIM
# Assay: Protein-protein interaction inhibition between Kras and SOS1 (KrasGl2D-SOS PPI) using AlphaScreen
# Assay type: binding
# Details: AlphaScreen; biotin-tagged human Kras loaded with GDP, His-tagged human SOS1; read-out: KRAS G12D-SOS PPI IC50
# Summary of the method: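 AlphaScreen format: Ni donor beads capture His-SOS1, streptavidin acceptor beads capture biotinylated Kras (E. coli-expressed, GDP-loaded post-purification). Excite 680 nm, read 520-620 nm.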
row,SMILES,IC50 [nM]
1,CC(C)C[C@@H]1NC(=O)[C@H](CC(C)C)N(C)C(=O)C[C@@H](C(=O)N2CCCCC2)N(C)C(=O)[C@H](C(C)C)N(C)C(=O)C2(CCCC2)NC(=O)[C@@H]2CCCN2C(=O)[C@H](CCc2ccc(C(F)(F)F)c(Cl)c2)NC(=O)CN(C)C(=O)[C@H](CC2CCCCC2)N(C)C(=O)[C@@H]2CCN2C(=O)[C@H](C)N(C)C1=O [Compound 1754] ([NMeL]L[NMeA][Aze][NMeCha][Sar][hPhe(3-Cl-4-CF3)]P[Ac5c][NMeV][NMeD]-Piperidide; lactam N-11),67
2,CC[C@H](C)[C@@H]1NC(=O)[C@H](C)N(C)C(=O)C[C@@H](C(=O)N2CCCCC2)N(C)C(=O)[C@H](C(C)C)N(C)C(=O)C2(CCCC2)NC(=O)[C@@H]2CCCN2C(=O)[C@H](CCc2ccc(C(F)(F)F)c(Cl)c2)NC(=O)[C@@H](C)N(C)C(=O)[C@H](Cc2ccc(F)cc2)N(C)C(=O)CN(C)C(=O)CN(C)C1=O [Compound 1755] ([NMeA]I[Sar][Sar][NMePhe(4-F)][dNMeA][hPhe(3-Cl-4-CF3)]P[Ac5c][NMeV][NMeD]-Piperidide; lactam N-11),7.9
3,CC[C@H](C)[C@@H]1NC(=O)[C@H](CC(C)C)N(C)C(=O)C[C@@H](C(=O)N(C)C)N(C)C(=O)[C@H](C2CCCC2)N(C)C(=O)C2(CCCC2)NC(=O)[C@@H]2CCCN2C(=O)[C@H](CCc2ccc(C(F)(F)F)c(Cl)c2)NC(=O)CN(C)C(=O)[C@H](Cc2ccc(C)cc2)N(C)C(=O)[C@@H]2CCN2C(=O)[C@H](C)N(C)C1=O [Compound 1756] ([NMeL]I[NMeA][Aze][NMePhe(4-Me)][Sar][hPhe(3-Cl-4-CF3)]P[Ac5c][NMeGly(cPent)][NMeD]-NMe2; lactam N-11),0.54
4,CC(C)C[C@H]1C(=O)N[C@@H](CC2CCC2)C(=O)N(C)CC(=O)N(C)CC(=O)N(C)[C@@H](CC2CCCCC2)C(=O)N(C)CC(=O)N[C@@H](CCc2ccc(C(F)(F)F)c(Cl)c2)C(=O)N2CCC[C@H]2C(=O)NC2(CCCC2)C(=O)N(C)[C@@H](C2CCCCC2)C(=O)N(C)[C@H](C(=O)N2CCCCC2)CC(=O)N1C [Compound 1759] ([NMeL][Cba][Sar][Sar][NMeCha][Sar][hPhe(3-Cl-4-CF3)]P[Ac5c][NMeChg][NMeD]-Piperidide; lactam N-11),2.7
5,CC(C)C[C@H]1C(=O)N[C@@H](CO)C(=O)N(C)[C@@H](C)C(=O)N2CC[C@H]2C(=O)N(C)[C@@H](CC2CCCCC2)C(=O)N(C)CC(=O)N[C@@H](CCc2ccc(C(F)(F)F)c(Cl)c2)C(=O)N2CCC[C@H]2C(=O)NC2(CCCC2)C(=O)N(C)[C@@H](C(C)C)C(=O)N(C)[C@H](C(=O)N2CCCCC2)CC(=O)N1C [Compound 1768] ([NMeL]S[NMeA][Aze][NMeCha][Sar][hPhe(3-Cl-4-CF3)]P[Ac5c][NMeV][NMeD]-Piperidide; lactam N-11),140
6,CCCOC[C@H]1C(=O)N(C)[C@H](C(=O)N2CCCCC2)CC(=O)N(C)[C@@H](CC(C)C)C(=O)N[C@@H]([C@@H](C)CC)C(=O)N(C)CC(=O)N(C)CC(=O)N(C)[C@@H](CC2CCCCC2)C(=O)N(C)CC(=O)N[C@@H](CCc2ccc(C(F)(F)F)c(Cl)c2)C(=O)N2CCC[C@H]2C(=O)NC2(CCCC2)C(=O)N1C [Compound 1771] ([NMeL]I[Sar][Sar][NMeCha][Sar][hPhe(3-Cl-4-CF3)]P[Ac5c][NMeS](Propyl)[NMeD]-Piperidide; lactam N-11),78
7,CC[C@@H]1NC(=O)[C@H](CC(C)C)N(C)C(=O)C[C@@H](C(=O)N2CCCCC2)N(C)C(=O)[C@H](C2CCCCC2)N(C)C(=O)C2(CCCC2)NC(=O)[C@@H]2CCCN2C(=O)[C@H](CCc2ccc(C(F)(F)F)c(Cl)c2)NC(=O)CN(C)C(=O)[C@H](CC2CCCCC2)N(C)C(=O)CN(C)C(=O)CN(C)C1=O [Compound 1775] ([NMeL][Abu][Sar][Sar][NMeCha][Sar][hPhe(3-Cl-4-CF3)]P[Ac5c][NMeChg][NMeD]-Piperidide; lactam N-11),4
8,CC[C@H](C)[C@@H]1NC(=O)[C@H](C)N(C)C(=O)C[C@@H](C)NC(=O)[C@H](C(C)C)N(C)C(=O)C2(CCCC2)NC(=O)[C@@H]2CCCN2C(=O)[C@H](CCc2ccc(C(F)(F)F)c(Cl)c2)NC(=O)CN(C)C(=O)[C@H](Cc2ccccc2)N(C)C(=O)[C@@H]2CCCN2C(=O)CN(C)C1=O [Compound 1778] (cyclo([Ac5c][NMeV][d(β3hA)][NMeA]I[Sar]P[NMeF][Sar][hPhe(3-Cl-4-CF3)]P)),7.3
9,CC[C@H](C)[C@@H]1NC(=O)[C@H](CC(C)C)N(C)C(=O)C[C@@H](C(=O)N(C)C)N(C)C(=O)[C@H](C2CCCC2)N(C)C(=O)C2(CCCC2)NC(=O)[C@@H]2CCCN2C(=O)[C@H](CCc2ccc(C(F)(F)F)c(Cl)c2)NC(=O)CN(C)C(=O)[C@H](Cc2ccc(C)cc2)N(C)C(=O)CN(C)C(=O)CN(C)C1=O [Compound 1779] ([NMeL]I[Sar][Sar][NMePhe(4-Me)][Sar][hPhe(3-Cl-4-CF3)]P[Ac5c][NMeGly(cPent)][NMeD]-NMe2; lactam N-11),0.52
10,CC[C@H](C)[C@@H]1NC(=O)[C@H](CC(C)C)N(C)C(=O)C[C@H](C(=O)N2CCCC2)N(C)C(=O)[C@H](C2CCCCC2)N(C)C(=O)C2(CCCC2)NC(=O)[C@@H]2CCCN2C(=O)[C@H](CCc2ccc(C(F)(F)F)c(Cl)c2)NC(=O)CN(C)C(=O)[C@H](CC2CCCCC2)N(C)C(=O)CN(C)C(=O)CN(C)C1=O [Compound 1781] ([NMeL]I[Sar][Sar][NMeCha][Sar][hPhe(3-Cl-4-CF3)]P[Ac5c][NMeChg][dNMeD]-Pyrrolidide; lactam N-11),49
11,"CC[C@H](C)[C@@H]1NC(=O)[C@H](CC(C)C)N(C)C(=O)C[C@@H](C(=O)N2CCCCC2)N(C)C(=O)[C@H](CCC(F)F)N(C)C(=O)C2(CCCC2)NC(=O)[C@@H]2CCCN2C(=O)[C@H](CCc2ccc(C(F)(F)F)c(Cl)c2)NC(=O)CN(C)C(=O)[C@H](CC2CCCCC2)N(C)C(=O)CN(C)C(=O)CN(C)C1=O [Compound 1782] ([NMeL]I[Sar][Sar][NMeCha][Sar][hPhe(3-Cl-4-CF3)]P[Ac5c][NMeNva(5,5-F2)][NMeD]-Piperidide; lactam N-11)",2.2
12,CC[C@H](C)[C@@H]1NC(=O)[C@H](C)N(C)C(=O)C[C@@H](C(=O)N2CCOCC2)N(C)C(=O)[C@H](C(C)C)N(C)C(=O)C2(CCCC2)NC(=O)[C@@H]2CCCN2C(=O)[C@H](CCc2ccc(C(F)(F)F)c(Cl)c2)NC(=O)[C@@H](C)N(C)C(=O)[C@H](CC2CCCCC2)N(C)C(=O)[C@@H]2CCCN2C(=O)CN(C)C1=O [Compound 1788] ([NMeA]I[Sar]P[NMeCha][dNMeA][hPhe(3-Cl-4-CF3)]P[Ac5c][NMeV][NMeD]-Morpholide; lactam N-11),4.3
13,CC[C@H](C)[C@@H]1NC(=O)[C@H](CC(C)C)N(C)C(=O)C[C@H](C(=O)N2CCCC2)N(C)C(=O)[C@H](C2CCCC2)N(C)C(=O)C2(CCCC2)NC(=O)[C@@H]2CCCN2C(=O)[C@H](CCc2ccc(C(F)(F)F)c(Cl)c2)NC(=O)CN(C)C(=O)[C@H](CC2CCCCC2)N(C)C(=O)CN(C)C(=O)CN(C)C1=O [Compound 1794] ([NMeL]I[Sar][Sar][NMeCha][Sar][hPhe(3-Cl-4-CF3)]P[Ac5c][NMeGly(cPent)][dNMeD]-Pyrrolidide; lactam N-11),40
14,CC(C)C[C@H]1C(=O)N[C@@H](CO)C(=O)N(C)CC(=O)N(C)CC(=O)N(C)[C@@H](CC2CCCCC2)C(=O)N(C)CC(=O)N[C@@H](CCc2ccc(C(F)(F)F)c(Cl)c2)C(=O)N2CCC[C@H]2C(=O)NC2(CCCC2)C(=O)N(C)[C@@H](C2CCCCC2)C(=O)N(C)[C@H](C(=O)N2CCCCC2)CC(=O)N1C [Compound 1799] ([NMeL]S[Sar][Sar][NMeCha][Sar][hPhe(3-Cl-4-CF3)]P[Ac5c][NMeChg][NMeD]-Piperidide; lactam N-11),15
15,CC(C)C[C@H]1C(=O)N[C@@H](C)C(=O)N(C)CC(=O)N(C)CC(=O)N(C)[C@@H](CC2CCCCC2)C(=O)N(C)CC(=O)N[C@@H](CCc2ccc(C(F)(F)F)c(Cl)c2)C(=O)N2CCC[C@H]2C(=O)NC2(CCCC2)C(=O)N(C)[C@@H](C2CCCCC2)C(=O)N(C)[C@H](C(=O)N2CCCCC2)CC(=O)N1C [Compound 1802] ([NMeL]A[Sar][Sar][NMeCha][Sar][hPhe(3-Cl-4-CF3)]P[Ac5c][NMeChg][NMeD]-Piperidide; lactam N-11),21
16,CC[C@H](C)[C@@H]1NC(=O)[C@H](C)N(C)C(=O)C[C@@H](C)N(C)C(=O)[C@H](C2CCCCC2)N(C)C(=O)C2(CCCC2)NC(=O)[C@@H]2CCCN2C(=O)[C@H](CCc2ccc(C(F)(F)F)c(Cl)c2)NC(=O)CN(C)C(=O)[C@H](CC2CCCCC2)N(C)C(=O)CN(C)C(=O)CN(C)C1=O [Compound 1808] (cyclo([Ac5c][NMeChg][NMedβ3hAla][NMeA]I[Sar][Sar][NMeCha][Sar][hPhe(3-Cl-4-CF3)]P)),47
17,CC[C@H](C)[C@@H]1NC(=O)[C@H](CC(C)C)N(C)C(=O)C[C@@H](C)N(C)C(=O)[C@H](C2CCCCC2)N(C)C(=O)C2(CCCC2)NC(=O)[C@@H]2CCCN2C(=O)[C@H](CCc2ccc(C(F)(F)F)c(Cl)c2)NC(=O)CN(C)C(=O)[C@H](CC2CCCCC2)N(C)C(=O)[C@@H]2CCN2C(=O)[C@H](C)N(C)C1=O [Compound 1813] (cyclo([Ac5c][NMeChg][NMedβ3hAla][NMeL]I[NMeA][Aze][NMeCha][Sar][hPhe(3-Cl-4-CF3)]P)),36
18,CC[C@H](C)[C@@H]1NC(=O)[C@H](CC(C)C)N(C)C(=O)C[C@H](C(=O)N2CCCC2)N(C)C(=O)[C@H]([C@@H](C)CC)N(C)C(=O)C2(CCCC2)NC(=O)[C@@H]2CCCN2C(=O)[C@H](CCc2ccc(C(F)(F)F)c(Cl)c2)NC(=O)CN(C)C(=O)[C@H](CC2CCCCC2)N(C)C(=O)CN(C)C(=O)CN(C)C1=O [Compound 1814] ([NMeL]I[Sar][Sar][NMeCha][Sar][hPhe(3-Cl-4-CF3)]P[Ac5c][NMeI][dNMeD]-Pyrrolidide; lactam N-11),170
